{"source": "patent US3957996A", "about": "(priority 1973, dated 1976)", "key": {"[1]": {"system": "peridural space / spinal roots of dogs (digital pain, scrotal pain, weight support)", "assay_type": "in vivo, Mature male beagles"}, "[2]": {"system": "rat sciatic nerve", "assay_type": "in vivo, Female Charles River rats"}, "[3]": {"system": "outward potassium current", "conditions": "voltage-clamped giant axon; cited from earlier work"}, "[4]": {"system": "inward initial sodium current", "conditions": "voltage-clamped giant axon; cited from earlier work"}, "[5]": {"system": "sheep (anal, vulv.-scrotal and digital pain)", "assay_type": "in vivo", "conditions": "Compound C alone 1%"}, "[6]": {"conditions": "alone: S 0.75%, T 1%, bupivicaine 0.5%, epinephrine 1:100,000, 5 ml"}, "[7]": {"conditions": "local anesthetic alone: lidocaine 2.0%, dibucaine 0.125%, procaine 2.0%, no epinephrine"}, "[8]": {"conditions": "local anesthetic alone: lidocaine 2.0%, dibucaine 0.125%, procaine 2.0%, no epinephrine, approximate"}, "[9]": {"conditions": "5 ml, epinephrine 1:100,000, lidocaine 2%"}, "[10]": {"conditions": "5 ml, epinephrine 1:100,000, lidocaine 2%, saxitoxin 4 μg/ml"}, "[11]": {"conditions": "compound alone 0.5%, no vasoconstrictor"}, "[12]": {"conditions": "compound alone 1.0%, no vasoconstrictor"}, "[13]": {"conditions": "local anesthetic alone 0.25%, no vasoconstrictor"}, "[14]": {"conditions": "1:100,000 epinephrine, procaine 1%, saxitoxin 1 μg/ml"}}, "note": "Where “and” joins values, the source holds several entries; their conditions need not be identical. Equal values may be shown once. Read-outs that look alike come from different tables or passages of the source."}
{"smiles": "CCCCN1CCCCC1C(=O)Nc1c(C)cccc1C", "note": "(stereo not shown) [Bupivicaine, bupivacaine]", "values": [{"measurement": "Duration of block of Digital Pain", "setting": "[1]; [6]", "value": "232 to 269", "unit": "min"}, {"measurement": "Duration of block of Scrotal Pain", "setting": "[1]; [6]", "value": "94 min and 139 min"}, {"measurement": "Duration of block of Scrotal Pain", "setting": "[1]; alone: S 0.75%, T 1%, bupivicaine 0.5%, epinephrine 1:100,000, 5 ml, listed as bupivicaine", "value": "about 94 min."}]}
{"smiles": "CCN(CC)CC(=O)Nc1c(C)cccc1C", "note": "[Lidocaine, lidocaine]", "values": [{"measurement": "Duration of complete block, mean ± standard deviation", "setting": "[2]; [7]", "value": "141 ± 28", "unit": "min"}, {"measurement": "Frequency of complete block (C)", "setting": "[2]; [7]", "value": "5/5"}, {"measurement": "Onset", "setting": "[2]; [8]", "value": 1, "unit": "min"}, {"measurement": "Duration: mean, Weight Support", "setting": "[1]; [9]", "value": 137, "unit": "min"}, {"measurement": "Duration: range, Weight Support", "setting": "[1]; [9]", "value": "108 to 162", "unit": "min"}, {"measurement": "Duration: mean, Digital Pain", "setting": "[1]; [10]", "value": 127, "unit": "min"}, {"measurement": "Duration: mean, Scrotal Pain", "setting": "[1]; [10]", "value": 111, "unit": "min"}, {"measurement": "Duration: range, Digital Pain", "setting": "[1]; [10]", "value": "72 to 162", "unit": "min"}, {"measurement": "Duration: range, Scrotal Pain", "setting": "[1]; [10]", "value": "62 to 152", "unit": "min"}, {"measurement": "Onset: mean, Digital Pain", "setting": "[1]; [10]", "value": 7, "unit": "min"}, {"measurement": "Onset: mean, Scrotal Pain", "setting": "[1]; [10]", "value": 8, "unit": "min"}, {"measurement": "Onset: mean, Weight Support", "setting": "[1]; [10]", "value": 5, "unit": "min"}, {"measurement": "Onset: range, Digital Pain", "setting": "[1]; [10]", "value": "5 to 13", "unit": "min"}, {"measurement": "Onset: range, Scrotal Pain", "setting": "[1]; [10]", "value": "5 to 13", "unit": "min"}, {"measurement": "Onset: range, Weight Support", "setting": "[1]; [10]", "value": "3 to 6", "unit": "min"}, {"measurement": "Duration (salient points, in words)", "setting": "[1]; Table III footnote", "value": "short"}, {"measurement": "Frequency (salient points, in words)", "setting": "[1]; Table III footnote", "value": "good"}]}
{"smiles": "CCCC(C(=O)Nc1c(C)cccc1C)N(CC)CC", "note": "(stereo not shown) [T, 2-Diethylamino-2',6'-valeroxylidide]", "values": [{"measurement": "Duration of block of Digital Pain", "setting": "[1]; [6]", "value": "301 (238-365) min."}, {"measurement": "Duration of block of Scrotal Pain", "setting": "[1]; [6]", "value": "202 (185-218) min."}]}
{"smiles": "CCC(C)(C)NCC(=O)Nc1c(C)cccc1C", "note": "[L, 2-tert. Amylamino-2',6'-acetoxylidide]", "values": [{"measurement": "Frequency", "setting": "[2]; [11]", "value": "6/6"}, {"measurement": "Duration, mean ± S.D.", "setting": "[2]; [12]", "value": "101 ± 8", "unit": "min"}, {"measurement": "Frequency", "setting": "[2]; [12]", "value": "6/6"}]}
{"smiles": "CCCN(CC)C(CC)C(=O)Nc1c(C)cccc1C", "note": "(stereo not shown) [S, 2-(N-Ethyl-n-propylamino)-2',6'-butyroxylidide]", "values": [{"measurement": "Duration of block of Digital Pain", "setting": "[1]; [6]", "value": "151 (77-256) min."}, {"measurement": "Duration of block of Scrotal Pain", "setting": "[1]; [6]", "value": "128 (82-173) min."}]}
{"smiles": "Cc1cccc(C)c1NC(=O)CN(C)C", "note": "[H, 2-Dimethylamino-2'-6'-acetoxylidide]", "values": [{"measurement": "Frequency", "setting": "[2]; [11]", "value": "5/6"}, {"measurement": "Duration, mean ± S.D.", "setting": "[2]; [12]", "value": "76 ± 12", "unit": "min"}, {"measurement": "Frequency", "setting": "[2]; [12]", "value": "6/6"}]}
{"smiles": "CCCCOc1cc(C(=O)NCCN(CC)CC)c2ccccc2n1", "note": "[Dibucaine, dibucaine]", "values": [{"measurement": "Duration of complete block, mean ± standard deviation", "setting": "[2]; [7]", "value": "170 ± 33", "unit": "min"}, {"measurement": "Frequency of complete block (C)", "setting": "[2]; [7]", "value": "5/5"}, {"measurement": "Onset", "setting": "[2]; [8]", "value": 4, "unit": "min"}]}
{"smiles": "Cc1cccc(C)c1NC(=O)CNC1CCC1", "note": "[Compound K, 2-Cyclobutylamino-2',6'-acetoxylidide]", "values": [{"measurement": "Frequency", "setting": "[2]; [12]", "value": "6/6"}]}
{"smiles": "CCCOc1ccc(C(=O)CCN2CCCCC2)cc1", "note": "[Falicain, falicain]", "values": [{"measurement": "Duration, mean ± S.D.", "setting": "[2]; [13]", "value": "94 ± 21", "unit": "min"}, {"measurement": "Frequency", "setting": "[2]; [13]", "value": "5/5"}, {"measurement": "Duration, mean ± S.D.", "setting": "[2]; local anesthetic alone 0.25%, no vasoconstrictor, listed as falicain", "value": "about 94 min."}]}
{"smiles": "CCN(CC)CCOC(=O)c1ccc(N)cc1", "note": "[Procaine, procaine]", "values": [{"measurement": "Effect on outward potassium current (in words)", "setting": "[3]", "value": "reduce"}, {"measurement": "Effect on inward (initial) sodium current (in words)", "setting": "[4]", "value": "reduce"}, {"measurement": "Duration, mean ± standard deviation", "setting": "[2]; [14]", "value": "104 ± 15", "unit": "min"}, {"measurement": "Frequency", "setting": "[2]; [14]", "value": 100, "unit": "%"}, {"measurement": "Onset", "setting": "[2]; [14]", "value": 2, "unit": "min"}, {"measurement": "Duration of complete block, mean ± standard deviation", "setting": "[2]; [7]", "value": "99 ± 8", "unit": "min"}, {"measurement": "Frequency of complete block (C)", "setting": "[2]; [7]", "value": "5/5"}, {"measurement": "Onset", "setting": "[2]; [8]", "value": 1, "unit": "min"}]}
{"smiles": "CCC(C)N(CC)CC(=O)Nc1c(C)cccc1C", "note": "(stereo not shown) [Compound P, 2-(N-Ethyl-sec. butylamino)-2',6'-acetoxylidide]", "values": [{"measurement": "Frequency (in words)", "setting": "[2]; Example 5, STX 2 μg/ml in combinations", "value": "poor"}, {"measurement": "Duration, mean ± S.D.", "setting": "[2]; [11]", "value": 45, "unit": "min"}, {"measurement": "Frequency", "setting": "[2]; [11]", "value": "2/6"}]}
{"smiles": "CCCN(CC(=O)Nc1c(C)cccc1C)C(C)(C)CC", "note": "[Compound C, 2-(N-n-Propyl-tert. amylamino)-2',6'-acetoxylidide]", "values": [{"measurement": "Duration of block of Digital Pain", "setting": "[5]", "value": "45 to 60", "unit": "min"}, {"measurement": "Onset time", "setting": "[5]", "value": "5 to 10", "unit": "min"}, {"measurement": "Duration of block of Scrotal Pain", "setting": "[1]; C alone 1%, 10 ml, epinephrine 1:100,000, 2 animals", "value": "192 min and 251 min"}]}
{"smiles": "COC(=O)[C@H]1[C@@H](OC(=O)c2ccccc2)C[C@@H]2CC[C@H]1N2C", "note": "[cocaine]", "values": [{"measurement": "Effect on outward potassium current (in words)", "setting": "[3]", "value": "reduce"}, {"measurement": "Effect on inward (initial) sodium current (in words)", "setting": "[4]", "value": "reduce"}]}
{"smiles": "Cc1cccc(C)c1NC(=O)C(C)N", "note": "(stereo not shown) [Q, 2-Amino-2',6'-propionoxylidide]", "values": [{"measurement": "Frequency", "setting": "[2]; [11]", "value": "4/6"}, {"measurement": "Duration, mean ± S.D.", "setting": "[2]; [12]", "value": "79 ± 19", "unit": "min"}, {"measurement": "Frequency", "setting": "[2]; [12]", "value": "5/6"}]}
{"smiles": "CCCCN(C)CC(=O)Nc1c(C)cccc1C", "note": "[M, 2-(N-Methyl-n-butylamino)-2',6'-acetoxylidide]", "values": [{"measurement": "Frequency", "setting": "[2]; [12]", "value": "5/6"}]}
{"smiles": "CCNCC(=O)Nc1c(C)cccc1C", "note": "[J, 2-Ethylamino-2',6'-acetoxylidide]", "values": [{"measurement": "Frequency", "setting": "[2]; [12]", "value": "6/6"}]}
{"smiles": "CCCCOc1ccc(OCCCN2CCOCC2)cc1", "note": "[Pramoxine, pramoxine]", "values": [{"measurement": "Anesthetic effect (in words)", "setting": "[2]; Example 5, STX 2 μg/ml or pramoxine 0.25% alone", "value": "no anesthetic effect whatever was observed"}, {"measurement": "Duration, mean ± S.D.", "setting": "[2]; [13]", "value": 0, "unit": "min"}, {"measurement": "Frequency", "setting": "[2]; [13]", "value": "0/5"}]}
